Assay results taken from patent US11214803B2, “Modulators of YAP1 expression” (Ionis Pharmaceuticals, Inc., priority 2019, dated 2022).
pIC50: −log10 of the molar value. Strand notation (5' to 3'): a small letter for the sugar, then the base; units joined by * are phosphorothioate-linked, units joined directly phosphodiester-linked; [ ] holds rarer units or linkages, { } end groups; capitals alone tell only the bases. k = constrained ethyl (cEt); [5mC] = 5-methylcytosine; d = 2'-deoxy (DNA)

Legend:
[1] = test system: Yap1 mRNA; test: Dose-dependent inhibition of human Yap1 in A-431 cells (Example 7, 10,000 cells per well, RTS36584); assay type: cell-based; conditions: free uptake, approximately 48 hours; for Yap1 mRNA, % UTC: A-431 cells, 10,000 cells per well
In short: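 A-431 cells at 10,000 per well received modified oligonucleotides by free uptake at several doses. After about 48 hours, Yap1 mRNA was quantified with primer-probe set RTS36584, normalized to RIBOGREEN total RNA and expressed as % untreated control. IC50 came from linear regression on a log/linear plot.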

[2] = Tolerability in Balb/c mice, plasma chemistry markers (Example 12); assay type: in vivo; conditions: 50 mg/kg subcutaneously twice a week for four weeks
Procedure: Balb/c mice were treated with modified oligonucleotides selected from studies described above and evaluated for changes in the levels of various plasma chemistry markers.
(§1) Groups of male Balb/c mice at 6-7 weeks of age (obtained from Taconic) were injected subcutaneously twice a week for four weeks (for a total of 8 treatments) with 50 mg/kg of modified oligonucleotides. One group of male Balb/c mice was injected with PBS. Mice were euthanized on day 26 post start of treatment (24 hours following the final administration).

[3] = Tolerability in Balb/c mice, body and organ weights (Example 12); assay type: in vivo; conditions: male Balb/c mice, 50 mg/kg s.c. twice a week for four weeks (8 treatments), end of study (day 26)
Procedure: as §1
Body weights of Balb/c mice were measured at the end of the study, and the average body weight for each group is presented in the table below. Modified oligonucleotides that caused any changes in organ weights outside the expected range for modified oligonucleotides were excluded from further studies.

[4] = test system: Yap1 mRNA; test: Antisense inhibition of human Yap1 in A-431 cells by cEt gapmers, single dose (Example 1, RTS4814); assay type: cell-based
In short: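 Free uptake of 2,000 nM 3-10-3 cEt gapmer (16-mer, full phosphorothioate, 5-methylcytosines) in A-431 cells for ~48 h. Yap1 mRNA quantified by qRT-PCR with set RTS4814, normalized to total RNA (RiboGreen), and expressed as % of untreated control; asterisked values target the amplicon region.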

[5] = test system: Yap1 mRNA; test: Antisense inhibition of human Yap1 in A-431 cells by cEt gapmers, single dose (Example 3, RTS36584); assay type: cell-based; conditions: A-431 cells, 5,000 cells per well
In short: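 Free uptake, 2,000 nM, ~48 h, A-431 cells. Gapmers: 16-mer 3-10-3 cEt wings, PS backbone, 5-MeC. Readout qRT-PCR, RiboGreen-normalized, % UTC.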

[6] = test system: Yap1 mRNA; test: Antisense inhibition of human Yap1 in SNU-449 cells by modified oligonucleotides, single dose (Example 5, RTS36584); assay type: cell-based
In short: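 Free uptake, 2,000 nM, ~48 h, SNU-449 at 10,000 cells/well. Read-out: qRT-PCR (RTS36584), RIBOGREEN-normalised, expressed as % UTC. Asterisk = oligo hits amplicon region.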

[7] = Table 2, A-431 cells, free uptake, 2,000 nM, approximately 48 hours, RTS4814, Yap1 mRNA relative to untreated control cells
[8] = Table 8, free uptake, 2,000 nM, approximately 48 hours, RTS36584, normalized to RIBOGREEN, Yap1 mRNA relative to untreated control cells
[9] = Table 1, A-431 cells, free uptake, 2,000 nM, approximately 48 hours, RTS4814, Yap1 mRNA relative to untreated control cells
[10] = A-431 cells, 5,000 cells per well, free uptake, 2,000 nM modified oligonucleotide, approx. 48 hours, RTS4814, normalized to RIBOGREEN, Table 3

958540 (kA*kT*kT*d[5mC]*dT*dA*dT*d[5mC]*d[5mC]*dA*dG*dG*dG*kT*k[5mC]*kA; antisense) [compound 958540]
Yap1 mRNA, % UTC ([1]; 15.6 nM): 62 % UTC
Yap1 mRNA, % UTC ([1]; 62.5 nM): 28 % UTC
Yap1 mRNA, % UTC ([1]; 4000.00 nM): 8 % UTC
pIC50 ([1]; A-431 cells, linear regression on log/linear plot): 7.70
ALT [2]: 4127 U/L
AST [2]: 3940 U/L
BUN [2]: 25 mg/dL
TBIL [2]: 0.44 mg/dL
Kidney weight [3]: 0.33 g
Liver weight [3]: 1.53 g
Spleen weight [3]: 0.09 g
body weight [3]: 19 g

715491 (antisense kA*kA*k[5mC]*d[5mC]*dA*dA*d[5mC]*dT*dA*dT*dT*dA*d[5mC]*kT*kT*k[5mC]) [Compound 715491]
YAP1 (% UTC) [4, 7]: 71 % UTC
YAP1 (% UTC) [5, 8]: 8 % UTC

715487 (antisense kA*kT*kT*dA*d[5mC]*dT*dT*d[5mC]*dA*dT*dA*dG*d[5mC]*kT*kT*kA) [Compound 715487]
YAP1 (% UTC) [4, 9]: 22 % UTC
YAP1 (% UTC) ([6]; Table 39, SNU-449 cells, 10,000 cells per well, free uptake, 2,000 nM oligonucleotide, approx. 48 hours, RTS36584, normalized to RIBOGREEN, Yap1 mRNA relative to untreated control): 12 % UTC
YAP1 (% UTC) ([6]; Table 40 (separate experiment), SNU-449 cells, 10,000 cells per well, free uptake, 2,000 nM oligonucleotide, approx. 48 hours, RTS36584, normalized to RIBOGREEN, Yap1 mRNA relative to untreated control): 28 % UTC
YAP1 (% UTC) ([6]; Table 41, SNU-449 cells, 10,000 cells per well, free uptake, 2,000 nM modified oligonucleotide, approximately 48 hours, RTS36584, normalized to RIBOGREEN, Yap1 mRNA relative to untreated control cells): 28 % UTC
YAP1 (% UTC) ([6]; Table 42 (separate experiment), SNU-449 cells, 10,000 cells per well, free uptake, 2,000 nM modified oligonucleotide, approximately 48 hours, RTS36584, normalized to RIBOGREEN, Yap1 mRNA relative to untreated control cells): 29 % UTC
YAP1 (% UTC) ([6]; Table 43 experiment, SNU-449 cells, 10,000 cells per well, free uptake, 2,000 nM, approximately 48 hours, RTS36584, Yap1 mRNA normalized to RIBOGREEN, relative to untreated control cells): 25 % UTC
YAP1 (% UTC) ([6]; Table 44 experiment, SNU-449 cells, 10,000 cells per well, free uptake, 2,000 nM, approximately 48 hours, RTS36584, Yap1 mRNA normalized to RIBOGREEN, relative to untreated control cells): 18 % UTC
YAP1 (% UTC) ([6]; Table 45, Yap1 mRNA as percent of untreated control, SNU-449 cells, single dose): 28 % UTC
YAP1 (% UT) ([6]; Table 46, Yap1 mRNA as percent of untreated control, SNU-449 cells, single dose): 25 % UT
YAP1 (% UT) ([6]; Table 48, Yap1 mRNA level relative to untreated control, modified oligonucleotides targeting SEQ ID NO.: 1 and 2): 34 % UT
YAP1 (% UT) ([6]; Table 49, Yap1 mRNA level relative to untreated control, modified oligonucleotides targeting SEQ ID NO.: 1 and 2): 30 % UT
YAP1 (% UT) ([6]; Table 50, Yap1 mRNA remaining as percent of untreated control (UT), SNU-449 cells, single dose): 31 % UT
YAP1 (% UT) ([6]; Table 51, Yap1 mRNA remaining as percent of untreated control (UT), SNU-449 cells, single dose): 24 % UT
YAP1 (% UT) ([6]; Table 52, Yap1 mRNA, modified oligonucleotides targeting SEQ ID NO: 1 and 2): 29 % UT
YAP1 (% UT) ([6]; Yap1 mRNA, percent of untreated control, modified oligonucleotides targeting SEQ ID NO: 1 and 2, Table 47): 39 % UT

715483 (antisense k[5mC]*kT*k[5mC]*dT*dT*dT*dG*dG*dA*dA*dA*d[5mC]*d[5mC]*kA*kT*kT) [Compound 715483]
YAP1 (% UTC) [4, 10]: 15 % UTC
YAP1 (% UTC) [5, 8]: 2 % UTC
YAP1 (% UTC) ([5]; Table 9, free uptake, 2,000 nM, approximately 48 hours, RTS36584, normalized to RIBOGREEN, Yap1 mRNA relative to untreated control cells): 1 % UTC
YAP1 (% UTC) ([5]; Table 10, free uptake, 2,000 nM oligonucleotide, approx. 48 hours, primer probe set RTS36584, Yap1 mRNA normalized to RIBOGREEN, percent of untreated control): 2 % UTC
YAP1 (% UTC) ([5]; Table 11, free uptake, 2,000 nM oligonucleotide, approx. 48 hours, primer probe set RTS36584, Yap1 mRNA normalized to RIBOGREEN, percent of untreated control): 1 % UTC
YAP1 (% UTC) ([5]; Table 12, free uptake, 2,000 nM modified oligonucleotide, approx. 48 hours, RTS36584, normalized to RIBOGREEN, Yap1 mRNA relative to untreated control cells): 1 % UTC
YAP1 (% UTC) ([5]; Table 13, free uptake, 2,000 nM modified oligonucleotide, approx. 48 hours, RTS36584, normalized to RIBOGREEN, Yap1 mRNA relative to untreated control cells): 1 % UTC

715508 (antisense k[5mC]*kT*kG*dT*dG*d[5mC]*dT*dG*dG*dG*dA*dT*dT*kG*kA*kT) [Compound 715508]
YAP1 (% UTC) [4, 9]: 24 % UTC

715502 (antisense k[5mC]*k[5mC]*kA*dG*dA*d[5mC]*dT*dT*dA*dA*dT*dT*d[5mC]*kA*kA*kG) [Compound 715502]
YAP1 (% UTC) [4, 9]: 91 % UTC

715569 (k[5mC]*kA*kA*dA*dG*dG*dT*dA*dG*dG*dA*dT*dA*kA*kA*kT; antisense) [Compound 715569]
YAP1 (% UTC) [4, 7]: 122 % UTC

715485 (antisense kA*kA*kT*dA*d[5mC]*dT*d[5mC]*dT*dT*dT*dG*dG*dA*kA*kA*k[5mC]) [Compound 715485]
YAP1 (% UTC) [4, 7]: 72 % UTC

715584 (kG*kG*kT*d[5mC]*dT*dG*dG*dA*dA*d[5mC]*dA*dG*dA*kT*kT*kA; antisense) [Compound 715584]
YAP1 (% UTC) [4, 7]: 96 % UTC

715426 (kA*kT*k[5mC]*d[5mC]*dA*dT*d[5mC]*dA*dG*dG*dA*dA*dG*kA*kG*kG; antisense) [Compound 715426]
YAP1 (% UTC) [4, 10]: 80 % UTC

715562 (k[5mC]*kA*k[5mC]*dA*d[5mC]*dA*dA*d[5mC]*dT*d[5mC]*dA*dG*dA*k[5mC]*kA*kG; antisense) [Compound 715562]
YAP1 (% UTC) [4, 9]: 77 % UTC

715416 (k[5mC]*kT*k[5mC]*dG*dA*dA*d[5mC]*dA*dT*dG*d[5mC]*dT*dG*kT*kG*kG; antisense) [Compound 715416]
YAP1 (% UTC) [4, 7]: 53 % UTC

715436 (antisense kT*kG*kG*d[5mC]*dA*dA*dA*dA*d[5mC]*dG*dA*dG*dG*kG*kT*k[5mC]) [Compound 715436]
YAP1 (% UTC) [4, 9]: 126 % UTC

715617 (antisense kA*kA*kG*dA*d[5mC]*dG*dG*dA*dT*dA*dA*dA*dA*kA*kT*kT) [Compound 715617]
YAP1 (% UTC) [4, 7]: 98 % UTC

715631 (antisense kA*kT*kA*dA*dG*dA*dG*d[5mC]*d[5mC]*dT*dA*d[5mC]*d[5mC]*kT*kG*kA) [Compound 715631]
YAP1 (% UTC) [4, 9]: 134 % UTC

715582 (kG*kT*k[5mC]*dA*dA*dG*d[5mC]*d[5mC]*dT*dG*dT*d[5mC]*dT*kG*kG*kA; antisense) [Compound 715582]
YAP1 (% UTC) [4, 10]: 33 % UTC

715614 (antisense kA*kA*kA*dT*dT*dA*d[5mC]*dT*dT*dT*dA*dA*dG*k[5mC]*k[5mC]*kA) [Compound 715614]
YAP1 (% UTC) [4, 7]: 110 % UTC

715501 (antisense kA*kA*kA*dA*dG*d[5mC]*d[5mC]*dT*dT*dA*dG*dA*dG*kT*k[5mC]*kA) [Compound 715501]
YAP1 (% UTC) [4, 10]: 28 % UTC

715557 (kG*kG*kA*dA*dG*dT*dT*dA*dT*dT*d[5mC]*dA*dG*k[5mC]*kA*kG; antisense) [Compound 715557]
YAP1 (% UTC) [4, 7]: 46 % UTC

715567 (kG*kG*kT*dA*dG*dG*dA*dT*dA*dA*dA*dT*dG*kA*kA*kT; antisense) [Compound 715567]
YAP1 (% UTC) [4, 10]: 99 % UTC

715468 (antisense kG*k[5mC]*kT*dT*dG*dG*dT*dG*dG*d[5mC]*dA*dG*d[5mC]*k[5mC]*kA*kA) [Compound 715468]
YAP1 (% UTC) [4, 10]: 90 % UTC

715401 (kG*kG*kT*d[5mC]*dT*d[5mC]*d[5mC]*dG*dA*dG*dT*d[5mC]*d[5mC]*k[5mC]*k[5mC]*kG; antisense) [Compound 715401]
YAP1 (% UTC) [4, 7]: 84 % UTC

715610 (antisense kG*kG*k[5mC]*dT*dG*dT*dG*dT*dA*dG*dG*d[5mC]*dT*kG*kA*k[5mC]) [Compound 715610]
YAP1 (% UTC) [4, 9]: 87 % UTC

715514 (kG*kA*kG*d[5mC]*dG*dA*dA*dG*dG*dT*dG*d[5mC]*dG*kG*kA*kG; antisense) [Compound 715514]
YAP1 (% UTC) [4, 9]: 121 % UTC

715518 (kT*kT*kT*dG*dG*dG*d[5mC]*dA*dA*dA*dG*dT*dT*k[5mC]*k[5mC]*kT; antisense) [Compound 715518]
YAP1 (% UTC) [4, 7]: 60 % UTC
